Reference: patent US20210363254A1, “PHARMACEUTICAL COMBINATIONS” (Novartis AG, priority 2018, published 2021)
Read-outs that look alike come from different tables or passages of the source.

COc1ncc(-c2nc3c(n2C(C)C)[C@H](c2ccc(Cl)cc2)N(c2cc(Cl)cn(C)c2=O)C3=O)c(OC)n1 [HDM201, (S)-5-(5-Chloro-1-methyl-2-oxo-1,2-dihydro-pyridin-3-yl)-6-(4-chloro-phenyl)-2-(2,4-dimethoxy-pyrimidin-5-yl)-1-isopropyl-5,6-dihydro-1H-pyrrolo[3,4-d]imidazol-4-one]
1 (33.3) n (%): Amylase Increased, All Grades (1B 200 mg, N=3) | Anaemia, All Grades (1B 200 mg, N=3) | Fatigue, All Grades (1B 200 mg, N=3)
9 (100) n (%): Total, All Grades (1B 120 mg, N=9)
2 (25.0) n (%): Abdominal Pain, All Grades (1B 150 mg, N=8) | Anaemia, All Grades (1B 150 mg, N=8) | Diarrhoea, All Grades (1B 150 mg, N=8) | Fatigue, All Grades (1B 150 mg, N=8) | Lipase Increased, All Grades (1B 150 mg, N=8) | Lipase Increased, Grade 3/4 (1B 150 mg, N=8) | Lymphopenia, All Grades (1B 150 mg, N=8) | Neutrophil Count Decreased, Grade 3/4 (1B 150 mg, N=8) | Thrombocytopenia, Grade 3/4 (1B 150 mg, N=8) | Vomiting, All Grades (1B 150 mg, N=8)
4 (50.0) n (%): Nausea, All Grades (1B 150 mg, N=8) | Neutropenia, All Grades (1B 150 mg, N=8) | Thrombocytopenia, All Grades (1B 150 mg, N=8) | Total, Grade 3/4 (1B 150 mg, N=8)
3 (33.3) n (%): Diarrhoea, All Grades (1B 120 mg, N=9) | Platelet Count Decreased, All Grades (1B 120 mg, N=9) | Vomiting, All Grades (1B 120 mg, N=9)
1 (12.5) n (%): Alanine Aminotransferase Increased, All Grades (1B 150 mg, N=8) | Asthenia, All Grades (1B 150 mg, N=8) | Blood Bilirubin Increased, All Grades (1B 150 mg, N=8) | Blood Creatinine Increased, All Grades (1B 150 mg, N=8) | Eye Pain, All Grades (1B 150 mg, N=8) | Fatigue, Grade 3/4 (1B 150 mg, N=8) | Folliculitis, All Grades (1B 150 mg, N=8) | Gamma-Glutamyltransferase Increased, All Grades (1B 150 mg, N=8) | Headache, All Grades (1B 150 mg, N=8) | Influenza Like Illness, All Grades (1B 150 mg, N=8) | Lethargy, All Grades (1B 150 mg, N=8) | Leukopenia, All Grades (1B 150 mg, N=8) | Leukopenia, Grade 3/4 (1B 150 mg, N=8) | Lymphopenia, Grade 3/4 (1B 150 mg, N=8) | Neuralgia, All Grades (1B 150 mg, N=8) | Oral Candidiasis, All Grades (1B 150 mg, N=8) | Platelet Count Decreased, All Grades (1B 150 mg, N=8) | Pruritus, All Grades (1B 150 mg, N=8) | White Blood Cell Count Decreased, All Grades (1B 150 mg, N=8)
2 (22.2) n (%): Anaemia, All Grades (1B 120 mg, N=9) | Blood Creatine Phosphokinase Increased, All Grades (1B 120 mg, N=9) | Neutropenia, All Grades (1B 120 mg, N=9) | Neutropenia, Grade 3/4 (1B 120 mg, N=9) | White Blood Cell Count Decreased, All Grades (1B 120 mg, N=9)
7 (77.8) n (%): Nausea, All Grades (1B 120 mg, N=9)
1 (11.1) n (%): Abdominal Pain, All Grades (1B 120 mg, N=9) | Alopecia, All Grades (1B 120 mg, N=9) | Asthenia, All Grades (1B 120 mg, N=9) | Blood Creatine Phosphokinase Increased, Grade 3/4 (1B 120 mg, N=9) | Blood Creatinine Increased, All Grades (1B 120 mg, N=9) | Decreased Appetite, All Grades (1B 120 mg, N=9) | Dehydration, All Grades (1B 120 mg, N=9) | Dry Skin, All Grades (1B 120 mg, N=9) | Dysgeusia, All Grades (1B 120 mg, N=9) | Fatigue, All Grades (1B 120 mg, N=9) | Hyperkalaemia, All Grades (1B 120 mg, N=9) | Hypocalcaemia, All Grades (1B 120 mg, N=9) | Leukopenia, All Grades (1B 120 mg, N=9) | Lipase Increased, All Grades (1B 120 mg, N=9) | Monocytosis, All Grades (1B 120 mg, N=9) | Musculoskeletal Pain, All Grades (1B 120 mg, N=9) | Myalgia, All Grades (1B 120 mg, N=9) | Nausea, Grade 3/4 (1B 120 mg, N=9) | Thrombocytopenia, All Grades (1B 120 mg, N=9) | Weight Decreased, All Grades (1B 120 mg, N=9)
4 (44.4) n (%): Total, Grade 3/4 (1B 120 mg, N=9)
3 (37.5) n (%): Decreased Appetite, All Grades (1B 150 mg, N=8) | Neutropenia, Grade 3/4 (1B 150 mg, N=8) | Neutrophil Count Decreased, All Grades (1B 150 mg, N=8)
0 n (%): Abdominal Pain, Grade 3/4 (1B 120 mg, N=9) | Alanine Aminotransferase Increased, All Grades (1B 120 mg, N=9) | Alanine Aminotransferase Increased, Grade 3/4 (1B 120 mg, N=9) | Alopecia, Grade 3/4 (1B 120 mg, N=9) | Amylase Increased, All Grades (1B 120 mg, N=9) | Amylase Increased, Grade 3/4 (1B 120 mg, N=9) | Anaemia, Grade 3/4 (1B 120 mg, N=9) | Asthenia, Grade 3/4 (1B 120 mg, N=9) | Blood Bilirubin Increased, All Grades (1B 120 mg, N=9) | Blood Bilirubin Increased, Grade 3/4 (1B 120 mg, N=9) | Blood Creatinine Increased, Grade 3/4 (1B 120 mg, N=9) | Decreased Appetite, Grade 3/4 (1B 120 mg, N=9) | Dehydration, Grade 3/4 (1B 120 mg, N=9) | Diarrhoea, Grade 3/4 (1B 120 mg, N=9) | Dry Skin, Grade 3/4 (1B 120 mg, N=9) | Dysgeusia, Grade 3/4 (1B 120 mg, N=9) | Eye Pain, All Grades (1B 120 mg, N=9) | Eye Pain, Grade 3/4 (1B 120 mg, N=9) | Fatigue, Grade 3/4 (1B 120 mg, N=9) | Folliculitis, All Grades (1B 120 mg, N=9) | Folliculitis, Grade 3/4 (1B 120 mg, N=9) | Gamma-Glutamyltransferase Increased, All Grades (1B 120 mg, N=9) | Gamma-Glutamyltransferase Increased, Grade 3/4 (1B 120 mg, N=9) | Headache, All Grades (1B 120 mg, N=9) | Headache, Grade 3/4 (1B 120 mg, N=9) | Hyperkalaemia, Grade 3/4 (1B 120 mg, N=9) | Hypocalcaemia, Grade 3/4 (1B 120 mg, N=9) | Influenza Like Illness, All Grades (1B 120 mg, N=9) | Influenza Like Illness, Grade 3/4 (1B 120 mg, N=9) | Lethargy, All Grades (1B 120 mg, N=9) | Lethargy, Grade 3/4 (1B 120 mg, N=9) | Leukopenia, Grade 3/4 (1B 120 mg, N=9) | Lipase Increased, Grade 3/4 (1B 120 mg, N=9) | Lymphopenia, All Grades (1B 120 mg, N=9) | Lymphopenia, Grade 3/4 (1B 120 mg, N=9) | Monocytosis, Grade 3/4 (1B 120 mg, N=9) | Musculoskeletal Pain, Grade 3/4 (1B 120 mg, N=9) | Myalgia, Grade 3/4 (1B 120 mg, N=9) | Neuralgia, All Grades (1B 120 mg, N=9) | Neuralgia, Grade 3/4 (1B 120 mg, N=9) | Neutrophil Count Decreased, All Grades (1B 120 mg, N=9) | Neutrophil Count Decreased, Grade 3/4 (1B 120 mg, N=9) | Oedema, All Grades (1B 120 mg, N=9) | Oedema, Grade 3/4 (1B 120 mg, N=9) | Oral Candidiasis, All Grades (1B 120 mg, N=9) | Oral Candidiasis, Grade 3/4 (1B 120 mg, N=9) | Platelet Count Decreased, Grade 3/4 (1B 120 mg, N=9) | Pruritus, All Grades (1B 120 mg, N=9) | Pruritus, Grade 3/4 (1B 120 mg, N=9) | Thrombocytopenia, Grade 3/4 (1B 120 mg, N=9) | Vomiting, Grade 3/4 (1B 120 mg, N=9) | Weight Decreased, Grade 3/4 (1B 120 mg, N=9) | White Blood Cell Count Decreased, Grade 3/4 (1B 120 mg, N=9) | Abdominal Pain, Grade 3/4 (1B 150 mg, N=8) | Alanine Aminotransferase Increased, Grade 3/4 (1B 150 mg, N=8) | Alopecia, All Grades (1B 150 mg, N=8) | Alopecia, Grade 3/4 (1B 150 mg, N=8) | Amylase Increased, All Grades (1B 150 mg, N=8) | Amylase Increased, Grade 3/4 (1B 150 mg, N=8) | Anaemia, Grade 3/4 (1B 150 mg, N=8) | Asthenia, Grade 3/4 (1B 150 mg, N=8) | Blood Bilirubin Increased, Grade 3/4 (1B 150 mg, N=8) | Blood Creatine Phosphokinase Increased, All Grades (1B 150 mg, N=8) | Blood Creatine Phosphokinase Increased, Grade 3/4 (1B 150 mg, N=8) | Blood Creatinine Increased, Grade 3/4 (1B 150 mg, N=8) | Decreased Appetite, Grade 3/4 (1B 150 mg, N=8) | Dehydration, All Grades (1B 150 mg, N=8) | Dehydration, Grade 3/4 (1B 150 mg, N=8) | Diarrhoea, Grade 3/4 (1B 150 mg, N=8) | Dry Skin, All Grades (1B 150 mg, N=8) | Dry Skin, Grade 3/4 (1B 150 mg, N=8) | Dysgeusia, All Grades (1B 150 mg, N=8) | Dysgeusia, Grade 3/4 (1B 150 mg, N=8) | Eye Pain, Grade 3/4 (1B 150 mg, N=8) | Folliculitis, Grade 3/4 (1B 150 mg, N=8) | Gamma-Glutamyltransferase Increased, Grade 3/4 (1B 150 mg, N=8) | Headache, Grade 3/4 (1B 150 mg, N=8) | Hyperkalaemia, All Grades (1B 150 mg, N=8) | Hyperkalaemia, Grade 3/4 (1B 150 mg, N=8) | Hypocalcaemia, All Grades (1B 150 mg, N=8) | Hypocalcaemia, Grade 3/4 (1B 150 mg, N=8) | Influenza Like Illness, Grade 3/4 (1B 150 mg, N=8) | Lethargy, Grade 3/4 (1B 150 mg, N=8) | Monocytosis, All Grades (1B 150 mg, N=8) | Monocytosis, Grade 3/4 (1B 150 mg, N=8) | Musculoskeletal Pain, All Grades (1B 150 mg, N=8) | Musculoskeletal Pain, Grade 3/4 (1B 150 mg, N=8) | Myalgia, All Grades (1B 150 mg, N=8) | Myalgia, Grade 3/4 (1B 150 mg, N=8) | Nausea, Grade 3/4 (1B 150 mg, N=8) | Neuralgia, Grade 3/4 (1B 150 mg, N=8) | Oedema, All Grades (1B 150 mg, N=8) | Oedema, Grade 3/4 (1B 150 mg, N=8) | Oral Candidiasis, Grade 3/4 (1B 150 mg, N=8) | Platelet Count Decreased, Grade 3/4 (1B 150 mg, N=8) | Pruritus, Grade 3/4 (1B 150 mg, N=8) | Vomiting, Grade 3/4 (1B 150 mg, N=8) | Weight Decreased, All Grades (1B 150 mg, N=8) | Weight Decreased, Grade 3/4 (1B 150 mg, N=8) | White Blood Cell Count Decreased, Grade 3/4 (1B 150 mg, N=8) | Abdominal Pain, All Grades (1B 200 mg, N=3) | Abdominal Pain, Grade 3/4 (1B 200 mg, N=3) | Alanine Aminotransferase Increased, All Grades (1B 200 mg, N=3) | Alanine Aminotransferase Increased, Grade 3/4 (1B 200 mg, N=3) | Alopecia, All Grades (1B 200 mg, N=3) | Alopecia, Grade 3/4 (1B 200 mg, N=3) | Amylase Increased, Grade 3/4 (1B 200 mg, N=3) | Anaemia, Grade 3/4 (1B 200 mg, N=3) | Asthenia, All Grades (1B 200 mg, N=3) | Asthenia, Grade 3/4 (1B 200 mg, N=3) | Blood Bilirubin Increased, All Grades (1B 200 mg, N=3) | Blood Bilirubin Increased, Grade 3/4 (1B 200 mg, N=3) | Blood Creatine Phosphokinase Increased, All Grades (1B 200 mg, N=3) | Blood Creatine Phosphokinase Increased, Grade 3/4 (1B 200 mg, N=3) | Blood Creatinine Increased, All Grades (1B 200 mg, N=3) | Blood Creatinine Increased, Grade 3/4 (1B 200 mg, N=3) | Decreased Appetite, All Grades (1B 200 mg, N=3) | Decreased Appetite, Grade 3/4 (1B 200 mg, N=3) | Dehydration, All Grades (1B 200 mg, N=3) | Dehydration, Grade 3/4 (1B 200 mg, N=3) | Diarrhoea, All Grades (1B 200 mg, N=3) | Diarrhoea, Grade 3/4 (1B 200 mg, N=3) | Dry Skin, All Grades (1B 200 mg, N=3) | Dry Skin, Grade 3/4 (1B 200 mg, N=3) | Dysgeusia, All Grades (1B 200 mg, N=3) | Dysgeusia, Grade 3/4 (1B 200 mg, N=3) | Eye Pain, All Grades (1B 200 mg, N=3) | Eye Pain, Grade 3/4 (1B 200 mg, N=3) | Fatigue, Grade 3/4 (1B 200 mg, N=3) | Folliculitis, All Grades (1B 200 mg, N=3) | Folliculitis, Grade 3/4 (1B 200 mg, N=3) | Gamma-Glutamyltransferase Increased, All Grades (1B 200 mg, N=3) | Gamma-Glutamyltransferase Increased, Grade 3/4 (1B 200 mg, N=3) | Headache, All Grades (1B 200 mg, N=3) | Headache, Grade 3/4 (1B 200 mg, N=3) | Hyperkalaemia, All Grades (1B 200 mg, N=3)
7 (87.5) n (%): Total, All Grades (1B 150 mg, N=8)
